For assay [1], the system named is wheat leaf rust, Puccinia recondita. As to the kind of experiment: whole plant or invertebrate. Particulars: foliar; for pest or weed control at 280.212 g/ha: read-out: % Control (without rain), foliar, 0.25 lb.; for pest or weed control at 1120.85 g/ha: read-out: % Control (without rain), foliar, 1 lb. Type of assay: in vivo.
Assay [2] has the same test system. Nature of the assay: whole plant or invertebrate. Particulars: foliar; for pest or weed control at 280.212 g/ha: read-out: % Control (with 1" of rain), foliar, 0.25 lb., 1" of rain; for pest or weed control at 1120.85 g/ha: read-out: % Control (with 1" of rain), foliar, 1 lb., 1" of rain. Type of assay: in vivo.

Where a name gives a salt, the structure may show the parent alone. Read-outs that look alike come from different tables or passages of the source.

For “4-(1,3-dihydroxypropyl)-1,2,4-triazole [Example 22]”, the “% Control (without rain)” value in assay [1] (0.25 lb.) and in assay [1] (1 lb.) was 90% in each case. Moreover, the “% Control (with 1" of rain)” value in assay [2] (0.25 lb.) and in assay [2] (1 lb.) was 0% each time.

Consider `c1nncn1C1CC1` [Example 2, 4-cyclopropyl-1,2,4-triazole], for which, in assay [1], the pest or weed control at 280.212 g/ha worked out at 90% and the pest or weed control at 1120.85 g/ha was found to be 90%. For the same molecule, in assay [2], the pest or weed control at 280.212 g/ha was determined as 40% and the pest or weed control at 1120.85 g/ha was 0%.

Regarding `CCC(C)n1cnnc1` (centres unmarked) [Example 5, 4-sec-butyl-1,2,4-triazole], in assay [1], the pest or weed control at 280.212 g/ha is 97% and the pest or weed control at 1120.85 g/ha was 99%. Further, in assay [2], the pest or weed control at 280.212 g/ha is 78% and the pest or weed control at 1120.85 g/ha is 69%.

`CC(C)(C)n1cnnc1` [Example 6, 4-t-butyl-1,2,4-triazole]: in assay [1], the pest or weed control at 280.212 g/ha stood at 100% and the pest or weed control at 1120.85 g/ha amounted to 100%. In assay [2], the pest or weed control at 280.212 g/ha is 95% and the pest or weed control at 1120.85 g/ha is 95%.

As for `CCCCCn1cnnc1` [Example 7, 4-n-pentyl-1,2,4-triazole], in assay [1], the pest or weed control at 280.212 g/ha was 100% and the pest or weed control at 1120.85 g/ha stood at 100%. In assay [2], the pest or weed control at 280.212 g/ha was 100% and the pest or weed control at 1120.85 g/ha is 100%.

`CCCCCCCCCCn1cnnc1` [Example 12, 4-n-decyl-1,2,4-triazole]: the pest or weed control at 280.212 g/ha in assay [1] turned out to be 57%; in assay [2] it was 48%. Also, the results for the pest or weed control at 1120.85 g/ha in assay [1] and in assay [2] were 100% and 78%, respectively.

Regarding `CC=CCn1cnnc1` [Example 14, 4-(2-butenyl)-1,2,4-triazole], in assay [1], the pest or weed control at 280.212 g/ha worked out at 100% and the pest or weed control at 1120.85 g/ha came out at 100%. In addition, in assay [2], the pest or weed control at 280.212 g/ha was 99% and the pest or weed control at 1120.85 g/ha stood at 100%.

For the molecule `C#CCn1cnnc1` [Example 15, 4-propargyl-1,2,4-triazole], in assay [1], the pest or weed control at 280.212 g/ha stood at 100% and the pest or weed control at 1120.85 g/ha was 100%. Besides, in assay [2], the pest or weed control at 280.212 g/ha is 99% and the pest or weed control at 1120.85 g/ha amounted to 100%.

In the case of `C#CC(C)(C)n1cnnc1` [Example 16, 4-(1,1-dimethylpropargyl)-1,2,4-triazole], in assay [1], the pest or weed control at 280.212 g/ha worked out at 0% and the pest or weed control at 1120.85 g/ha amounted to 0%. In assay [2], the pest or weed control at 280.212 g/ha amounted to 0% and the pest or weed control at 1120.85 g/ha turned out to be 0%.

As for `OCCn1cnnc1` [Example 17, 4-(2-hydroxyethyl)-1,2,4-triazole], in assay [1], the pest or weed control at 280.212 g/ha was determined as 60% and the pest or weed control at 1120.85 g/ha is 5%. Also, in assay [2], the pest or weed control at 280.212 g/ha came to 0% and the pest or weed control at 1120.85 g/ha amounted to 0%.

Consider `CCC(O)Cn1cnnc1` (centres unmarked) [Example 19, 4-(2-hydroxybutyl)-1,2,4-triazole], for which, in assay [1], the pest or weed control at 280.212 g/ha came out at 65% and the pest or weed control at 1120.85 g/ha amounted to 65%. In addition, in assay [2], the pest or weed control at 280.212 g/ha amounted to 0% and the pest or weed control at 1120.85 g/ha is 0%.

On to `CC(O)CCn1cnnc1` (centres unmarked) [Example 20, 4-(3-hydroxybutyl)-1,2,4-triazole], for which, in assay [1], the pest or weed control at 280.212 g/ha came out at 0% and the pest or weed control at 1120.85 g/ha came out at 0%. Further, in assay [2], the pest or weed control at 280.212 g/ha turned out to be 0% and the pest or weed control at 1120.85 g/ha was 0%.

For the molecule `OCCCCn1cnnc1` [Example 21, 4-(4-hydroxybutyl)-1,2,4-triazole], in assay [1], the pest or weed control at 280.212 g/ha was 10% and the pest or weed control at 1120.85 g/ha amounted to 10%. For the same molecule, in assay [2], the pest or weed control at 280.212 g/ha turned out to be 0% and the pest or weed control at 1120.85 g/ha is 0%.

With `Clc1ccc(OCCn2cnnc2)cc1` [Example 26], the pest or weed control at 280.212 g/ha in assay [1] and in assay [2] was 0% each time. For the same molecule, the pest or weed control at 1120.85 g/ha in assay [1] amounted to 10%; in assay [2], 0%.

`Clc1ccc(OCCn2cnnc2)c(Cl)c1` [Example 29, 4-(2-(2,4-dichlorophenoxy)ethyl)-1,2,4-triazole]: in assay [1], the pest or weed control at 280.212 g/ha is 0% and the pest or weed control at 1120.85 g/ha amounted to 20%. Further, in assay [2], the pest or weed control at 280.212 g/ha amounted to 0% and the pest or weed control at 1120.85 g/ha came to 0%.

Regarding `Clc1ccc(SCCn2cnnc2)cc1` [Example 30, 4-(2-(4-chlorothiophenoxy)ethyl)-1,2,4-triazole], in assay [1], the pest or weed control at 280.212 g/ha amounted to 90% and the pest or weed control at 1120.85 g/ha is 95%. In assay [2], the pest or weed control at 280.212 g/ha is 35% and the pest or weed control at 1120.85 g/ha was determined as 75%.

On to `Clc1ccc(SCCn2cnnc2)cc1Cl` [Example 31, 4-(2-(3,4-dichlorothiophenoxy)ethyl)-1,2,4-triazole], for which, in assay [1], the pest or weed control at 280.212 g/ha was 95% and the pest or weed control at 1120.85 g/ha turned out to be 98%. In assay [2], the pest or weed control at 280.212 g/ha is 45% and the pest or weed control at 1120.85 g/ha was 60%.

As for `COc1ccc(SCCn2cnnc2)cc1` [Example 32, 4-(2-(4-methoxythiophenoxy)ethyl)-1,2,4-trianzole], in assay [1], the pest or weed control at 280.212 g/ha was determined as 95% and the pest or weed control at 1120.85 g/ha was found to be 99%. Besides, in assay [2], the pest or weed control at 280.212 g/ha was 30% and the pest or weed control at 1120.85 g/ha is 85%.

Regarding `c1ccc(CCn2cnnc2)cc1` [Example 33, 4-phenethyl-1,2,4-triazole], in assay [1], the pest or weed control at 280.212 g/ha turned out to be 100% and the pest or weed control at 1120.85 g/ha was determined as 100%.

Regarding `COc1ccc(CCn2cnnc2)cc1` [Example 34, 4-(4-methoxyphenethyl)-1,2,4-triazole], in assay [1], the pest or weed control at 280.212 g/ha worked out at 15% and the pest or weed control at 1120.85 g/ha amounted to 25%. In assay [2], the pest or weed control at 280.212 g/ha came to 15% and the pest or weed control at 1120.85 g/ha was found to be 15%.

Consider `CCN(CC)CCn1cnnc1` [Example 35], for which, in assay [1], the pest or weed control at 280.212 g/ha came out at 30% and the pest or weed control at 1120.85 g/ha came out at 40%. In assay [2], the pest or weed control at 280.212 g/ha was determined as 0% and the pest or weed control at 1120.85 g/ha turned out to be 10%.

`c1nc(CCn2cnnc2)c[nH]1` [Example 36, 4-[2-(4-imidazolyl)]-1,2,4-triazole]: the pest or weed control at 280.212 g/ha in assay [1] and in assay [2] was 0% in each case. Also, the pest or weed control at 1120.85 g/ha in assay [1] and in assay [2] was 10% throughout.

For the molecule `c1nncn1CCCCn1cnnc1` [Example 37, 4-[4-(1,2,4-triazyl)butyl]-1,2,4-triazole], in assay [1], the pest or weed control at 280.212 g/ha turned out to be 0% and the pest or weed control at 1120.85 g/ha was 0%. In assay [2], the pest or weed control at 280.212 g/ha worked out at 5% and the pest or weed control at 1120.85 g/ha turned out to be 0%.

Turning to `CCOC(=O)CC(C)n1cnnc1` (centres unmarked) [Example 40, 4-(1-methyl-2-ethoxycarbonylethyl)-1,2,4-triazole], in assay [1], the pest or weed control at 280.212 g/ha is 40% and the pest or weed control at 1120.85 g/ha came out at 40%. For the same molecule, in assay [2], the pest or weed control at 280.212 g/ha was determined as 10% and the pest or weed control at 1120.85 g/ha is 10%.

For the molecule `O=C(O)CCn1cnnc1` [Example 41, 4-(2-carboxyethyl)-1,2,4-triazole], in assay [1], the pest or weed control at 280.212 g/ha stood at 85% and the pest or weed control at 1120.85 g/ha turned out to be 90%. Also, in assay [2], the pest or weed control at 280.212 g/ha amounted to 0% and the pest or weed control at 1120.85 g/ha stood at 0%.

Regarding `O=C(O)CCCn1cnnc1` [Example 44, 4-(3-carboxypropyl)-1,2,4-triazole], in assay [1], the pest or weed control at 280.212 g/ha was determined as 20% and the pest or weed control at 1120.85 g/ha amounted to 75%. Also, in assay [2], the pest or weed control at 280.212 g/ha was found to be 35% and the pest or weed control at 1120.85 g/ha is 5%.

`CC(C)OCCCn1cnnc1` [Example 48, 4-(3-isopropoxypropyl)-1,2,4-triazole]: in assay [1], the pest or weed control at 280.212 g/ha was found to be 0% and the pest or weed control at 1120.85 g/ha came out at 0%. In assay [2], the pest or weed control at 280.212 g/ha turned out to be 0% and the pest or weed control at 1120.85 g/ha worked out at 0%.

Regarding `COc1ccc(Cn2cnnc2)cc1` [Example 50, 4-(4-methoxybenzyl)-1,2,4-triazole], the pest or weed control at 280.212 g/ha in assay [1] turned out to be 100%. In addition, in assay [2], the pest or weed control at 1120.85 g/ha was 100%.

Turning to `Clc1ccc(Cn2cnnc2)c(Cl)c1` [Example 52, 4-(2,4-dichlorobenzyl)-1,2,4-triazole], in assay [1], the pest or weed control at 280.212 g/ha was 0% and the pest or weed control at 1120.85 g/ha was determined as 20%. In assay [2], the pest or weed control at 280.212 g/ha was determined as 5% and the pest or weed control at 1120.85 g/ha was determined as 10%.

As to `Clc1ccc(Cn2cnnc2)cc1Cl` [Example 53, 4-(3,4-dichloroenzyl)-1,2,4-triazole], in assay [1], the pest or weed control at 280.212 g/ha is 60% and the pest or weed control at 1120.85 g/ha was determined as 70%. Moreover, in assay [2], the pest or weed control at 280.212 g/ha came out at 10% and the pest or weed control at 1120.85 g/ha was found to be 30%.

With `c1ccc(-n2cnnc2)cc1` [Example 54, 4-phenyl-1,2,4-triazole], in assay [1], the pest or weed control at 280.212 g/ha worked out at 75% and the pest or weed control at 1120.85 g/ha amounted to 90%. Moreover, in assay [2], the pest or weed control at 280.212 g/ha was determined as 25% and the pest or weed control at 1120.85 g/ha was found to be 85%.

In the case of `Clc1cccc(-n2cnnc2)c1` [Example 55, 4-(3-chlorophenyl)-1,2,4-triazole hydrochloride], in assay [1], the pest or weed control at 280.212 g/ha turned out to be 100% and the pest or weed control at 1120.85 g/ha was 100%.

Regarding `c1nncn1N1CCOCC1` [Example 64, 4-morpholino-1,2,4-triazole], in assay [1], the pest or weed control at 280.212 g/ha worked out at 88% and the pest or weed control at 1120.85 g/ha is 94%.

For `c1nncn1-n1cnnc1` [Example 65], in assay [1], the pest or weed control at 280.212 g/ha is 64% and the pest or weed control at 1120.85 g/ha was determined as 78%.

Regarding `O=C(Sc1nncn1-c1ccccc1)c1cccc([N+](=O)[O-])c1` [Example 130, 3-(3-nitrobenzoylmercapto)-4-phenyl-1,2,4-triazole], in assay [1], the pest or weed control at 280.212 g/ha came out at 97% and the pest or weed control at 1120.85 g/ha came to 100%.

The values are drawn from patent US4120864A, “1,2,4-4H-triazole derivatives” (Rohm and Haas Company, priority 1972, dated 1978).
